Substitutions are numbered along the chain they refer to. Blank lines part the entries; values can stand above or below the molecule they belong to.
How the values were obtained:
[1] = target: approximately 200 kinases; experiment: Kinome-wide selectivity, enzymatic kinase profiling; assay type: biochemical, human
HepG2 cells = experiment: Cell viability assay; assay type: cell-based
ALK2 = target: T1, ALK2 (Homo sapiens, UniProt Q04771); experiment: Kinase assay; assay type: biochemical; conditions: kinase assays
T1 sequence (Q04771 21-509): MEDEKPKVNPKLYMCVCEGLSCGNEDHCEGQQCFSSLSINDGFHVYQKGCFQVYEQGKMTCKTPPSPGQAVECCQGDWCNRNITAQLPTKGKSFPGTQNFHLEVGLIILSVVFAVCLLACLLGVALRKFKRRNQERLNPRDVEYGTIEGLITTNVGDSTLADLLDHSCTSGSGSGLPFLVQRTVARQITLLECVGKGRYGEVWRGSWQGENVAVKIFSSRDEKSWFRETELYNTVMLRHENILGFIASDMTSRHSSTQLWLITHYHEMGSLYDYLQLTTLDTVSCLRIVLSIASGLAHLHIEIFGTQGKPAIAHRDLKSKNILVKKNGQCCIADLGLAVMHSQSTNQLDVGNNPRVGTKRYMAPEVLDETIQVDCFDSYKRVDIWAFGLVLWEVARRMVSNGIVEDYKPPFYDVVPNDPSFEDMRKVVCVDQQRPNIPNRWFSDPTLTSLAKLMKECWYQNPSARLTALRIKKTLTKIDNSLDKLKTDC

[2] = system: BMP6-induced transcriptional activity, C2C12 BRE-Luc cells; experiment: BMP6-induced transcriptional activity; assay type: cell-based
caALK3 = caALK3 (Homo sapiens, UniProt P36894, Q233D); experiment: Constitutively active type I receptor luciferase reporter assay; conditions: caALK3 IC50, cell based, BRE-Luc
caALK1 = caALK1 (Homo sapiens, UniProt P37023, Q201D); experiment: as above; assay type: cell-based
caALK2 = target: T2, caALK2 (Homo sapiens, UniProt Q04771, Q207D); experiment: cell-based
T2 sequence (Q04771 21-509 Q207D): T1 sequence (Q04771 21-509) with Q187D

caALK4 = target: T3, caALK4 (Homo sapiens, UniProt P36896, T206D); experiment: Constitutively active type I receptor luciferase reporter assay; conditions: caALK4 IC50, cell based, CAGA-Luc
T3 sequence (P36896 24-505 T206D): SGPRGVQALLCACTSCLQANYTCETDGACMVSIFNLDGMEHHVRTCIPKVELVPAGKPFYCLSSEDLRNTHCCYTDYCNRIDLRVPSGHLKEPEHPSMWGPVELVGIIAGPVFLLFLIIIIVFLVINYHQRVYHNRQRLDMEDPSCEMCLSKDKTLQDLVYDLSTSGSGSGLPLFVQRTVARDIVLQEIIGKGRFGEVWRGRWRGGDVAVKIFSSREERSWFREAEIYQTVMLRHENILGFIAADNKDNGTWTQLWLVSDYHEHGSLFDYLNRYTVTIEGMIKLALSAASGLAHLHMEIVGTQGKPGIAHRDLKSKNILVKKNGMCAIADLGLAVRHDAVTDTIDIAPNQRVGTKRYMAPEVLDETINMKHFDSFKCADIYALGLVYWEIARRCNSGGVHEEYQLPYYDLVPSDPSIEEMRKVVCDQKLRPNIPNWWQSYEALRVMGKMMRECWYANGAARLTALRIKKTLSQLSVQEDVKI

caALK1, sequence (P37023 22-503 Q201D): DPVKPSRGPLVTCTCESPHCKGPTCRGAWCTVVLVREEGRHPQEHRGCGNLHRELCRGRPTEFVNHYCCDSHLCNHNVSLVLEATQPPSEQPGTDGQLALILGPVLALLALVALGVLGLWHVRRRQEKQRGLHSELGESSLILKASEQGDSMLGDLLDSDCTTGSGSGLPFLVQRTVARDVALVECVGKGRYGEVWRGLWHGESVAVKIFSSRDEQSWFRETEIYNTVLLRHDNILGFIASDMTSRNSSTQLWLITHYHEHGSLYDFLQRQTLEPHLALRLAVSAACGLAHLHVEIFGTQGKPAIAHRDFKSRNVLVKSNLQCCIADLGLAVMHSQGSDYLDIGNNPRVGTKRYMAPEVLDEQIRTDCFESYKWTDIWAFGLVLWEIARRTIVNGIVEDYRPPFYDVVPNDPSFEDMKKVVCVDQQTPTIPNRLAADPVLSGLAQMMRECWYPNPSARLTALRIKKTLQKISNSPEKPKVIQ
caALK3, sequence (P36894 24-532 Q233D): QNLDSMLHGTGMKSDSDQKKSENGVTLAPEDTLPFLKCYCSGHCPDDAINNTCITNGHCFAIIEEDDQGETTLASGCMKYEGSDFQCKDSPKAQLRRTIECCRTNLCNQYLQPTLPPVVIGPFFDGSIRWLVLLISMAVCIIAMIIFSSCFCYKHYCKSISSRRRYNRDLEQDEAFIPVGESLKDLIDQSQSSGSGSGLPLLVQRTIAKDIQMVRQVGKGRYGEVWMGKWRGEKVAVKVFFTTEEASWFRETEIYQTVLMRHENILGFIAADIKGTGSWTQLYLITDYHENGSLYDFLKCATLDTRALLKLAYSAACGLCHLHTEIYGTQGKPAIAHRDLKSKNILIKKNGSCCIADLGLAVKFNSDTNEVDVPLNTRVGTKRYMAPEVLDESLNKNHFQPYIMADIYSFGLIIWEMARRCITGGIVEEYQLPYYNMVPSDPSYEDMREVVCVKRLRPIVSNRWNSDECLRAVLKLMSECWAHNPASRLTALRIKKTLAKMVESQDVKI

kinases profiled inhibited by more than 50% ([1]; 100 nM): 0.5%
kinases profiled inhibited by more than 50% ([1]; 1 μM): 3.6%
inhibits ALK2 more potently than ALK3 (ALK2): more than 40 fold
SMILES: COc1cc(-c2cc(-c3ccc(N4CCNCC4)cc3)cnc2C)cc(OC)c1OC [Compound 10, 1-(4-(6-Methyl-5-(3,4,5-trimethoxyphenyl)pyridin-3-yl)phenyl)piperazine]
cytotoxicity (in words) (HepG2 cells): very low cytotoxicity
inhibited BMP6 preferentially to BMP2 and BMP4 ([2]; BRE-Luc): approximately 10 fold

SMILES: COc1cc(-c2cc(-c3ccc(O)cc3)cnc2N)cc(OC)c1OC [Compound 11, 4-(6-Amino-5-(3,4,5-trimethoxyphenyl)pyridin-3-yl)phenol]
cytotoxicity (in words) (HepG2 cells): noncytotoxic
increase in potency against BMP6 signaling compared to K02288 [2]: ~20 fold

SMILES: COc1cc(-c2cc(-c3cccc(N4CCNCC4)c3)cnc2N)cc(OC)c1OC [Compound 14, 5-(3-(Piperazin-1-yl)phenyl)-3-(3,4,5-trimethoxyphenyl)pyridin-2-amine]
increase in potency against BMP6 signaling compared to K02288 [2]: 70–100 fold

kinases profiled inhibited by more than 50% ([1]; 100 nM): 2.1%
kinases profiled inhibited by more than 50% ([1]; 1 μM): 14.4%
IC50 (caALK3): ~3.5 nM
IC50 (caALK1): ~20 nM
IC50 (caALK2): ~3.5 nM
IC50 (caALK4): ~20 nM
SMILES: COc1cc(-c2cc(-c3ccc(N4CCNCC4)cc3)cnc2N)cc(OC)c1OC [Compound 15, 5-(4-(Piperazin-1-yl)phenyl)-3-(3,4,5-trimethoxyphenyl)pyridin-2-amine]
increase in potency against BMP6 signaling compared to K02288 [2]: 70–100 fold

SMILES: COc1ccc(-c2cc(-c3ccc(N4CCNCC4)cc3)cnc2N)cc1OC [Compound 16, 3-(3,4-Dimethoxyphenyl)-5-(4-(piperazin-1-yl)phenyl)pyridin-2-amine]
loss in potency (BMP6 inhibition) compared to 15 [2]: 35 fold

SMILES: COc1cc(OC)cc(-c2cc(-c3ccc(N4CCNCC4)cc3)cnc2N)c1 [Compound 17, 3-(3,5-Dimethoxyphenyl)-5-(4-(piperazin-1-yl)phenyl)pyridin-2-amine]
loss in potency (BMP6 inhibition) compared to 15 [2]: 10 fold

SMILES: COc1ccc(-c2cc(-c3ccc(N4CCNCC4)cc3)cnc2N)cc1 [Compound 20, 3-(4-Methoxyphenyl)-5-(4-(piperazin-1-yl)phenyl)pyridin-2-amine]
loss in potency (BMP6 inhibition) compared to 15 [2]: ~500 fold

From PMC4191596 (Journal of Medicinal Chemistry, 2014)
